Measured values reported in article PMC12476894, “Identification of α‑Azacyclic Acetamide-Based Inhibitors of P. falciparum Na^+ Pump (PfATP4) with Fast-Killing Asexual Blood-Stage Antimalarial Activity by Phenotypic Screening” (ACS Infectious Diseases, 2025).
In brackets after ≈: the same amount, converted by molar mass. Several values for one entry are separate records, joined by “and”; a condition that tells them apart may be missing. Equal values may be shown once. Read-outs that look alike come from different tables or passages of the source.

Assays:
Dd2-B2 (PfATP4^WT) = assay: Drug susceptibility assay for cross-resistance profiling (Fidock Lab), parental line; type: cell-based, Plasmodium falciparum; details: for EC50: Plasmodium falciparum
Dd2^P412L (PfATP4^P412L) = assay: Drug susceptibility assay for cross-resistance profiling (Fidock Lab), P412L; type: cell-based, Plasmodium falciparum; details: Table 3 data set; for EC50: Plasmodium falciparum, DD2, 15-selected line
[1] = test system: Pf3D7 trophozoites, pHcyt (PfATP4 and other plasma membrane transporters); set-up: method as in previous study; details: all conditions, versus solvent control 0.1% DMSO; ref previous study; cited from earlier work
Dd2^L350H (PfATP4^L350H) = assay: Drug susceptibility assay for cross-resistance profiling (Fidock Lab), L350H; type: cell-based, Plasmodium falciparum; details: Table 3 data set; for EC50: Plasmodium falciparum, DD2, 15-selected line
[2] = test system: P. falciparum 3D7 parasites (Pf3D7); assay: 72 h SYBR Green growth inhibition, ABS P. falciparum 3D7 (Phillips Lab); type: cell-based, Plasmodium falciparum; details: Plasmodium falciparum, 3D7; 72 h SYBR Green assay; mean ± SEM (n)
[3] = test system: Dd2 PfATP4^F917L mutant clones; assay: 72 h SYBR Green growth inhibition, 2- or 3-selected Dd2 clones with PfATP4 F917L (Phillips Lab); type: cell-based, Plasmodium falciparum; details: for EC50: Plasmodium falciparum
Experimental: (§1) To confirm the MOA for the α-azacyclic acetamides against P. falciparum and to obtain potential information about whether or not they bind PfATP4 at an overlapping site with that of KAE609, we undertook resistance selections using PfDd2 parasites using the published cycling drug selection method. , α-Azacyclic acetamides 2 and 3 were chosen as representative examples of the pyrrole- and indole-based series, respectively. […] Additional cycles were performed at 20 × EC50, until resistant parasites were detected based on a fold change in EC50 compared to the parental clonal Dd2 line (Table S3). Resistant parasites were detected in the 2-selections in all 4 flasks after 4 pulses and for 3-selections in 3 flasks after 5 pulses. Clonal lines were generated from each flask, and one clone per flask was selected for WGS and EC50 determination (Tables S4 and S5). WGS analysis identified two single point mutations in PfATP4 that were not present in the original clonal Dd2 parasite line (Tables and S4). P412L was found in three of four flasks containing 2-selected resistance clones, and F917L was identified in all three flasks containing 3-selected clones and in the fourth flask containing 2-selected clones (Table S4). PfATP4 mutations identified by the WGS analysis in parasite lines were verified by PCR of the pfatp4 gene, followed by Sanger sequencing (Figures S5, S6 and Table S6). An additional protein coding gene (ribosomal protein S8e) was mutated in the 2-selections. However, this mutation was identified in only one of four sequenced clones and is therefore unlikely to be related to resistance to 2 (Figure S7). All three resistant clones derived from the 3-selections harbored an identical mutation in a gene (pfcpu) encoding a conserved protein of unknown function, which was absent in the parental line (Figure S8).
(§2) ABS P. falciparum 3D7, Dd2 or PfNF54^luc parasites (BEI resources) were cultured in RPMI 1640 medium (Millipore Sigma), supplemented with 25 mM HEPES, 0.5% Albumax-I (Thermo Scientific), 23 mM sodium bicarbonate, 92 μM hypoxanthine, and 10 μg/mL gentamicin sulfate at 37 °C, 5% CO2, using deidentified O^+ red blood cells (BioIVT) as previously described. − Growth inhibition assays were conducted in 96 well plate format using the SYBR Green or luciferase reporter assay depending on the strain with modifications as described , (see Supporting Information for a detailed description). Details for the luciferase reporter assay are described below under the BRRoK assay section.
(§3) EC50 and CC50 values were determined by nonlinear regression performed in GraphPad Prism Version 10. Unless otherwise specified, data were fitted to the log(inhibitor) vs response–variable slope with four parameters equation. […] For mutant cell lines and compound combinations where bottom plateau of zero growth was not reached, the bottom of the curve was defined at 0% based on background values obtained for parental Dd2 from the same study.
(§4) Resistant Dd2 parasites were selected using a high-pressure intermittent selection protocol using a previously described method. Selections were set up using 4 flasks per compound starting with approximately 3 × 10^9 parasites per flask (80 mL per flask, 4% hematocrit, 3% parasitemia at the beginning of each pulse, mostly ring-stage parasites via previous sorbitol synchronization. Pulse 1 and 2 (48 h) were conducted at 10xEC50, and subsequent pulses were conducted at 20xEC50. Parasites cleared within 48 h under these conditions. 3-Selections used a total of 4 pulses, while 2-selections required 5 pulses before resistant parasites emerged (Table S3). Culture media was replenished daily for a week after each pulse, then every 2 days with weekly replenishment of blood. Cultures were monitored by microscopy until recrudescence. Clonal parasites were obtained from each flask by limiting dilution and maintained in drug free RPMI-1640 media prior to being analyzed for EC50 shifts. […]

[4] = test system: P. falciparum Dd2 (PfDd2) parasites; assay: 72 h SYBR Green growth inhibition, ABS P. falciparum Dd2 (Phillips Lab); type: cell-based, Plasmodium falciparum; details: Plasmodium falciparum, DD2, 72 h, read-out: PfDd2 EC50
[5] = test system: P. falciparum NF54^luc parasites; assay: Luciferase reporter (LR) / BRRoK assay, PfNF54^luc; type: cell-based, Plasmodium falciparum; details: 6 h; for EC50: Plasmodium falciparum, NF54, Hec50, luciferase reporter
[6] = test system: Pf3D7 trophozoite-stage parasites, cytosolic pH (pHcyt); cell-based assay for ATP4 inhibition; assay: P. falciparum cytosolic dose response pH assay (BCECF, with concanamycin A); details: for effect on parasite cytosolic pH (pHcyt) in presence of CMA (in words): Pf3D7, CMA 50 nM; for EC50: Plasmodium falciparum, read-out: Pf3D7 pH EC50
[7] = test system: P. falciparum NF54^luc parasites; assay: Luciferase reporter (LR) / BRRoK assay, PfNF54^luc; type: cell-based; details: Plasmodium falciparum, NF54, Hec50, 72 h
[8] = test system: Dd2 PfATP4^P412L mutant clones; assay: 72 h SYBR Green growth inhibition, 2-selected Dd2 clones with PfATP4 P412L (Phillips Lab); type: cell-based, Plasmodium falciparum; details: for EC50: Plasmodium falciparum
Experimental: as §1, §2, §3, §4

[9] = test system: P. falciparum NF54^luc parasites; assay: 72 h SYBR Green growth inhibition, PfNF54^luc; type: cell-based; details: Plasmodium falciparum, 72 h SYBR Green assay, read-out: PfNF54^luc EC50
PfD10 attB = assay: 72 h SYBR Green growth inhibition, PfD10 attB; type: cell-based; details: Plasmodium falciparum; 72 h SYBR Green assay
[10] = test system: isolated Pf3D7 trophozoites, [Na+]cyt; assay: Measurement of P. falciparum cytosolic Na+ concentration (SBFI); type: cell-based, Plasmodium falciparum; details: 50 nM
Experimental: Measurements were carried out in 96 well plates (excitation wavelengths: 340 and 380 nm; emission wavelength: 515 nm), as described previously. Fluorescence ratio values (340 nm/380 nm) were converted to [Na^+]cyt using a calibration procedure in which parasites were suspended in solutions of varying [Na^+] containing ionophores.

PfD10 attB + yDHODH = assay: 72 h SYBR Green growth inhibition, strain expressing yeast DHODH; type: cell-based; details: Plasmodium falciparum, read-out: PfD10 attB + yDHODH EC50, 72 h SYBR Green assay
[11] = Human HepG2 cytotoxicity assay (CellTiter Glo); type: cell-based; details: HepG2 cells
in vitro = in vitro ADME; details: human liver microsomes, 1 µM compound, 0.4 mg/mL protein
physchem = details: kinetic from dmso stock
[12] = DD2, 72 h, read-out: EC50, Dd2-B2
[13] = DD2, read-out: EC50, 3-selected flask #3 clone D8
[14] = DD2, read-out: EC50, 2-selected flask #3 clone F5
[15] = DD2, read-out: EC50, 2-resistant Flask 1 Clone B6
[16] = DD2, read-out: EC50, 3-resistant Flask 2 Clone D10
[17] = DD2, read-out: EC50, 3-resistant Flask 3 Clone D8
[18] = DD2, read-out: EC50, 3-resistant Flask 4 Clone B3
[19] = DD2, read-out: EC50, 2-resistant Flask 2 Clone F9
[20] = DD2, read-out: EC50, 2-resistant Flask 3 Clone F5
[21] = DD2, read-out: EC50, 2-resistant Flask 4 Clone E10

Structure (SMILES)	EC50 (Dd2-B2 (PfATP4^WT); [12]) [µM]	EC50 (Dd2^P412L (PfATP4^P412L)) [µM]	EC50 fold-change vs Dd2-B2, Dd2^P412L (Dd2^P412L (PfATP4^P412L)) [fold]	pH fingerprint traces (in words) [1]	EC50 (Dd2^L350H (PfATP4^L350H)) [µM]	EC50 fold-change vs Dd2-B2, Dd2^L350H (Dd2^L350H (PfATP4^L350H))	EC50 [2] [µM]	EC50 [3, 13] [µM]	Fold EC50 change compared to WT Dd2, 3-selected flask #3 clone D8 [3] [fold]	EC50 [4] [µM]	EC50 [5] [µM]	effect on parasite cytosolic pH (pHcyt) in presence of CMA (in words) [6]	EC50 [6] [µM]	EC50 [7] [µM]	EC50 [8, 14] [µM]	Fold EC50 change compared to WT Dd2, 2-selected flask #3 clone F5 [8] [fold]	EC50 [9] [µM]	EC50 (PfD10 attB) [µM]	EC50 [3, 15] [µM]	EC50 [3, 16] [µM]	further results
C[C@H]1[C@@H](O)O[C@@H]2O[C@@]3(C)CC[C@H]4[C@H](C)CC[C@@H]1[C@@]24OO3 [DHA, dihydroartemisinin, reference compound]	0.002 ± 9e-05	0.0027 ± 0.00015	1.4	overlapped with those of the solvent control	0.0024 ± 0.00023	1.2 fold	–	–	–	–	–	–	–	–	–	–	–	–	–	–	–
Cc1cc(Nc2ccc(S(F)(F)(F)(F)F)cc2)n2nc(C(C)(F)F)nc2n1 [DSM265, reference compound]	–	–	–	–	–	–	0.0066 ± 0.00036	0.0073 ± 0.00013	0.85	0.0086 ± 0.00036	> 0.24	no impact on pH	> 0.4	0.0068 ± 0.00069	0.0085 ± 0.0014	0.99	0.0086 ± 0.0003	0.012	–	–	BRRoK assay, luciferase activity after 6 h treatment (kill rate, in words) ([5]; 47x to 0.04x EC50): did not reduce parasite levels in the 6 h treatment window
C[C@H]1Cc2c([nH]c3cc(Cl)c(F)cc23)[C@@]2(N1)C(=O)Nc1ccc(Cl)cc12 [KAE609, cipargamin, reference compound]	0.0013 ± 0.0001	0.011 ± 0.0007	8.5	–	0.0048 ± 0.0003	3.7 fold and 4- to 6 fold	0.001 ± 3.8e-05	0.012 ± 0.00058	11	0.0012 ± 8.7e-05	–	increase in pHcyt	0.003 ± 0.0021	–	0.013 ± 0.0011	11	–	–	0.012 ± 0.00098	0.012 ± 0.00034	EC50 [3, 17]: 0.012 ± 0.00097 µM; EC50 [3, 18]: 0.014 ± 0.0009 µM; EC50 (Dd2-B2 (PfATP4^WT); DD2, read-out: EC50, Dd2-B2): 0.0021 µM; Fold change, Dd2-B2 (Dd2-B2 (PfATP4^WT); parent, Table S8): 1 fold; increase in [Na+]cyt (in words) [10]: increase in [Na^+]cyt; difference between pH EC50 and growth inhibition EC50 ([6]; Pf3D7, 72 h SYBR Green vs pH assay): ≤ 3.2 fold; EC50 [8, 19]: 0.014 ± 0.0014 µM; EC50 [8, 20]: 0.012 ± 0.0014 µM; EC50 [8, 21]: 0.014 ± 0.0011 µM
O=C1C(O)=C([C@H]2CC[C@H](c3ccc(Cl)cc3)CC2)C(=O)c2ccccc21 [atovaquone]	–	–	–	overlapped with those of the solvent control	–	–	–	–	–	–	–	–	–	–	–	–	–	–	–	–	–
CCN(CC)CCCC(C)Nc1ccnc2cc(Cl)ccc12 (centres unmarked) [chloroquine]	–	–	–	overlapped with those of the solvent control	–	–	–	–	–	–	–	–	–	–	–	–	–	–	–	–	–
COc1ccc(Cl)cc1NC(=O)Cn1cccc1-c1nnc(C2CC2)o1 [compound 1, N-(5-chloro-2-methoxyphenyl)-2-(2-(5-cyclopropyl-1,3,4-oxadiazol-2-yl)-1H-pyrrol-1-yl)acetamide]	–	–	–	–	–	–	2.5 ± 0.26	12 ± 0.46	4.6	2.4 ± 0.13	3.2 ± 0.016	–	4.5 ± 2	1.6 ± 0.075	8.3 ± 1.1	3.4	3 ± 0.93	2.9	> 10	> 10	EC50 (PfD10 attB + yDHODH): 3.2 µM; EC50 [3, 17]: > 10 µM; EC50 [3, 18]: > 10 µM; CC50 at 96 h [11]: > 50 µM; microsomal CLint (in vitro): 279 µL/min/mg; EC50 [8, 19]: 7.5 ± 2.4 µM; EC50 [8, 20]: 7.6 ± 2 µM; EC50 [8, 21]: 9.4 ± 2.5 µM; solubility (physchem; pH 2, simulated gastric fluid): 25 µM (≈ 9.32 µg/mL); solubility (physchem; pH 6.5, aqueous buffer): 12.5 µM (≈ 4.66 µg/mL)
